Molecular target: T1, p47^phox (Homo sapiens, UniProt P14598)
T1 construct: we evaluated p47^phox translocation from the cytosol to the membrane in HL-60 differentiated cells; endogenous in cells; host or cells: neutrophil-differentiated HL-60 cells treated with PMA; membrane and cytosolic fractions obtained by cryo-fracture
T1 sequence (P14598 1-390): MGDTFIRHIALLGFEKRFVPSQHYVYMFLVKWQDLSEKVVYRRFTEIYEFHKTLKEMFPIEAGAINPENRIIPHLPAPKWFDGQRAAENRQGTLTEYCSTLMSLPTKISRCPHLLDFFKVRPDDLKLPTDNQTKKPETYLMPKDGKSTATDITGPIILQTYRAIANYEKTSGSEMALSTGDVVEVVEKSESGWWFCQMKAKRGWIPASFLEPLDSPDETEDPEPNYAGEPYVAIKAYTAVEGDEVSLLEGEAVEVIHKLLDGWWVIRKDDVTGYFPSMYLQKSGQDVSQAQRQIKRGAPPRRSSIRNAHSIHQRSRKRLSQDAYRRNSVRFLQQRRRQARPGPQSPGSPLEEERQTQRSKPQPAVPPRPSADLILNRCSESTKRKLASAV
Assay: p47phox translocation from cytosol to membrane (Western blot) in PMA-stimulated HL-60 differentiated cells
Assay type: cell-based
Settings: PMA 0.8 µM, 50 μM
Method: Neutrophil-differentiated HL-60 cells (2 × 10^6 cells/mL) were incubated at 37 °C in a humid atmosphere with 5% CO2 and 50 μM of the different acrylonitrile compounds, then PMA 0.8 μM was added and incubated for 1 h to induce the activation of the enzyme NADPH oxidase. As a positive inhibition control, VAS2870 (20 μM) was used. Another two controls were performed: one with cells activated by PMA in the presence of DMSO, and the other (NA, non-activated) with cells in the absence of PMA and the acrylonitrile compounds. In 15 mL conical tubes, 5 mL of cell suspension from each treatment and control condition was transferred at 2 × 10^6 cells/mL and centrifuged at 1000 rpm at 4 °C for 10 min. The supernatant was then discarded, and each pellet was re-suspended in 2 mL of a 4% PBS solution with 2 mM EGTA and 0.25 mM PMSF frozen at −80 °C for 10 min. Then each pellet was thawed on ice. After this, the cell suspension was passed through a glass tissue homogenizer (Deltalab®, I.C.T, S.L, La Rioja, Spain) 20 times. The freezing-thawing and homogenization processes were repeated three times. Finally, the homogenate was centrifuged at 15,000 rpm at 4 °C for 15 min. The supernatant (cytosolic fraction) was removed from the pellet (membranes were prepared). A fraction was removed for the determination of total proteins, and the remainder was stored at −80 °C for further analysis. […]

N#C/C(=C\c1cc(-c2ccccc2)on1)C(=O)c1c[nH]c2ccccc12 [Compound C6] was tested, and the “translocation of p47phox to the membrane (in words)” value was “significantly reduced the translocation of p47^phox to the membrane”.

Reference: PMC10376059, “New NADPH Oxidase 2 Inhibitors Display Potent Activity against Oxidative Stress by Targeting p22^phox-p47^phox Interactions” (Antioxidants, 2023)
